Data on five compounds can be found in patent publication US12111318B2, “Method for treating cancer based on expression levels of translationally controlled tumor protein (TCTP)” (KOREA UNIVERSITY RESEARCH AND BUSINESS FOUNDATION, priority 2020, dated 2024).

Where two headings read alike, the source gives them in different places.

The subject of one series is CT26 TCTP tumor cells. The procedure: The tumor cells were harvested by trypsinization and washed once with DMEN (Thermo Fisher, USA) containing 0.1% fetal bovine (FBS), resuspended, and labeled in 0.1% DMEN with 10 μM CFSE for 10 minutes in a 37° C. incubator with 5% CO2. Then, the CFSE-labeled (MCF-7, HCT116, CaSki, MDA-MB-231) tumor cells were resuspended in 10 μM MART-1 peptide containing 1 ml of DMEM. In the case of A375 and 526Mel, the peptide-pulsing process was not needed. After peptide-pulsing for 1 hour, the cells were incubated for 4 hours with MART-1- or the NY-ESO1-specific CD8+ T cell lines at an E/T ratio of 1:1. […] All analysis was performed using a Becton Dickinson FACSverse (BD Bioscience, USA).
To further investigate the effect of each drug on sensitizing TCTP^high tumor cells to CTL-mediated killing, CT26 TCTP tumor cells were incubated with CTLs at various tumor cell-T cell ratios after treatment with a sublethal dose of each drug.
To quantify the synergistic effects of treatment of each drug with CTLs, a combination score was calculated based on changes in the percentage of apoptosis in drug-treated tumor cells with or without CTLs (see the following formula 1). […] Formula 1

The subject of another series is CT26 TCTP cells. Kind of series: Cell viability assay (trypan blue exclusion), CT26 TCTP cells. The class given is cell-based. The procedure:
(§1) CT26 tumor cells were treated with indicated concentrations of cisplatin, dihydroartemisinin, rapamycin, sertraline, and thioridazine for 24 hours. Cell viability was measured by the trypan blue exclusion assay, and the concentrations causing a 50% decrease in cell viability (IC50 values) were determined.

The subject of a further series is CT26 No cells. Kind of series: Cell viability assay (trypan blue exclusion), CT26 No cells. The class given is cell-based. Conditions: Mus musculus, 24 hours, read-out: IC50 (concentration causing a 50% decrease in cell viability). As to the method: as §1
A further series has as its system CT26 P3 tumor. Kind of series: ICB-refractory CT26 P3 tumor-bearing mice, anti-PD-L1 antibody alone or combined with DHA. The class given is in vivo, mouse. Conditions: both the anti-PD-L1 blockade agent and DHA; all mice in the other groups died. The procedure: Next, the present inventors expanded the preclinical therapeutic value of DHA in ICB therapy. To do this, ICB-refractory CT26 P3 tumor-bearing mice were administered anti-PD-L1 antibody alone or combined with DHA (FIG. 7G).

For the compound `CO[C@H]1C[C@@H]2CC[C@@H](C)[C@@](O)(O2)C(=O)C(=O)N2CCCC[C@H]2C(=O)O[C@H]([C@H](C)C[C@@H]2CC[C@@H](O)[C@H](OC)C2)CC(=O)[C@H](C)/C=C(\C)[C@@H](O)[C@@H](OC)C(=O)[C@H](C)C[C@H](C)/C=C/C=C/C=C/1C` [rapamycin], the CTL-mediated cytotoxicity result in the series on CT26 TCTP tumor cells is listed as “augmented CTL-mediated cytotoxicity in a synergistic fashion”.

On to `CN[C@H]1CC[C@@H](c2ccc(Cl)c(Cl)c2)c2ccccc21` [sertraline], for which the CTL-mediated cytotoxicity entry in the series with CT26 TCTP tumor cells is “augmented CTL-mediated cytotoxicity in a synergistic fashion”.

For the compound `N.N.[Cl][Pt][Cl]` [cisplatin], the “Susceptibility of CT26 TCTP cells to the drug” value in the series with CT26 TCTP cells (CT26 TCTP vs CT26 No cells, 24 hours) is listed as “refractory”.

With `C[C@H]1[C@@H](O)O[C@@H]2O[C@@]3(C)CC[C@H]4[C@H](C)CC[C@@H]1[C@@]24OO3` [DHA, dihydroartemisinin], the IC50 in the series on CT26 No cells worked out at 408 µM; in the series with CT26 TCTP cells (Mus musculus, CT26 TCTP cells, 24 hours, read-out: IC50 (concentration causing a 50% decrease in cell viability)), 22.7 µM. The “Difference of IC50 between CT26 No and CT26 TCTP cells” value in the series on CT26 TCTP cells (CT26 No vs CT26 TCTP) was “about 20 fold”. For the same compound, in the series on CT26 P3 tumor, the Mice that survived worked out at 90%. Further, the CTL-mediated cytotoxicity result in the series with CT26 TCTP tumor cells (sublethal dose of each drug, then CTLs at various tumor cell-T cell ratios, compared to PBS or cisplatin) is on record as “augmented CTL-mediated cytotoxicity in a synergistic fashion”.

For the compound `CSc1ccc2c(c1)N(CCC1CCCCN1C)c1ccccc1S2` (stereo not drawn) [thioridazine], in the series on CT26 TCTP tumor cells, the CTL-mediated cytotoxicity result is “augmented CTL-mediated cytotoxicity in a synergistic fashion”.
